Converted amounts (≈) assume the structure as drawn.
Tests used:
[1] = tested on: E. coli R+TEM (ß-Lactamase-Träger); assay: Serial dilution test in microtiter system (bacteriostasis, MIC); assay type: cell-based; conditions: Escherichia coli, read-out: Minimale Hemmkonzentration E.coli R+TEM
Description: (§1) Für die Untersuchungen wurde die Methode des Reihenverdünnungstestes im Mikrotitersystem angewandt. Die Prüfung der Substanzen auf Bakteriostase erfolgte in flüssigem Medium. Es wurde die Bakteriostasewirkung bei folgenden Konzentrationen untersucht: • 128, 64, 32, 16, 8, 4, 2, 1, 0,5, 0,25, 0,12, 0,06jug/ml. Es wurde ein Nährboden folgender Zusammensetzung benutzt: 10 g Pepton, 8 g Fleischextrakt-Oxoid, 3 g Natriumchlorid, 2 g sek. Natriumphosphat werden mit dest. Wasser auf […] aufgefüllt (pH 7,2 - 7,4). Lediglich bei der Testung gegen Streptokokken wurde 1 % Glucose hinzugefügt. Das Alter der Primärkulturen betrugt etwa 20 Stunden. Die Einstellung der Keimsuspension erfolgte am Photometer (nach "Eppendorf") (Reagenzglas-Durchmesser 14 mm, Filter 546nm) anhand der Trübung einer Bariumsulfat-Vergleichssuspension, die durch eine Bariumsulfat-Aufschwemmung erzeugt wurde, welche durch die Zugabe von 3,0 ml 1%ige Barium-chloridlösung in 97 ml 1%ige Schwefelsäure entstand. Nach der Einstellung wurden Streptococcus Aronson im Verhältnis 1:15 und die übrigen Testkeime im Verhältnis 1:1500 mit einer Kochsalzlösung weiter verdünnt.
(§2) 16 mg der jeweiligen Substanz wurden in 10 ml-Meßkolben eingewogen und mit dem Lösungsmittel bis zur Marke aufgefüllt. Die weitere Verdünnungsreihe wurde mit destilliertem Wasser oder dem jeweiligen Lösungsmittel hergestellt.
(§3) Die Vertiefungen der Mikrotiterplatten wurden mit 0,2 ml Nährmedium, 0,01 ml der entsprechenden Substanzverdünnung und mit einem Tropfen Keimsuspension (0,01 ml) beschickt und 18 bis 20 Stunden bei 37 °C bebrütet. Eine Lösungsmittelkontrolle wurde stets mitgeführt.
(§4) Die Ablesung wurde makroskopisch vorgenommen, wobei die jeweilige Grenzkonzentration (= niedrigste noch bakteriostatisch wirksame Konzentration) ermittelt wurde.
(§5) Als Testorganismen wurden benützt: • Staphylococcus aureus SG 511, Escherichia coli ATCC 11 775, Pseudomonas aeruginosa Hamburgensis und Pseudomonas; aeruginosa walter, Serratia marcescens ATCC 13 880, Klebsiella pneumoniae ATCC 10 031 und BC 6, Proteus mirabilis Hamburgensis, Proteus rettgeri, Enterobacter cloacae ATCC 13 047, E. coli R+TEM (ß-Lactamase-Träger).

[2] = tested on: Enterobacter cloacae ATCC 13 047; assay: as above; assay type: cell-based; conditions: liquid medium, 18 to 20 h at 37 °C, read-out: Minimale Hemmkonzentration Ent. cloacae ATCC 13047
Description: as §1, §2, §3, §4, §5

[3] = tested on: Escherichia coli ATCC 11 775; assay: as above; assay type: cell-based; conditions: liquid medium, 18 to 20 h at 37 °C, read-out: Minimale Hemmkonzentration E.coli ATCC 11775
Description: as §1, §2, §3, §4, §5

[4] = tested on: Klebsiella pneumoniae ATCC 10 031; assay: as above; assay type: cell-based; conditions: liquid medium, 18 to 20 h at 37 °C, read-out: Minimale Hemmkonzentration Kl.pneum. ATCC 10031
Description: as §1, §2, §3, §4, §5

[5] = tested on: Klebsiella pneumoniae BC 6; assay: as above; assay type: cell-based; conditions: BC6, liquid medium, 18 to 20 h at 37 °C, read-out: Minimale Hemmkonzentration Kl.pneum. BC 6
Description: as §1, §2, §3, §4, §5

[6] = tested on: Proteus mirabilis Hamburgensis; assay: as above; assay type: cell-based; conditions: liquid medium, 18 to 20 h at 37 °C, read-out: Minimale Hemmkonzentration Prot. mirab. Hbg.
Description: as §1, §2, §3, §4, §5

[7] = tested on: Proteus rettgeri; assay: as above; assay type: cell-based; conditions: Providencia rettgeri; liquid medium, 18 to 20 h at 37 °C; read-out: Minimale Hemmkonzentration Prot. Rettg.
Description: as §1, §2, §3, §4, §5

[8] = tested on: Pseudomonas aeruginosa Hamburgensis; assay: as above; assay type: cell-based; conditions: liquid medium, 18 to 20 h at 37 °C, read-out: Minimale Hemmkonzentration Pseud. Hbg.
Description: as §1, §2, §3, §4, §5

[9] = tested on: Pseudomonas aeruginosa walter; assay: as above; assay type: cell-based; conditions: liquid medium, 18 to 20 h at 37 °C, read-out: Minimale Hemmkonzentration Pseud.W.
Description: as §1, §2, §3, §4, §5

[10] = tested on: Serratia marcescens ATCC 13 880; assay: as above; assay type: cell-based; conditions: liquid medium, 18 to 20 h at 37 °C, read-out: Minimale Hemmkonzentration Serr. marcesc. ATCC 13880
Description: as §1, §2, §3, §4, §5

[11] = tested on: Staphylococcus aureus SG 511; assay: as above; assay type: cell-based; conditions: SG511, liquid medium, 18 to 20 h at 37 °C, read-out: Minimale Hemmkonzentration Staph. aureus SG 511
Description: as §1, §2, §3, §4, §5

[12] = tested on: E. coli ATCC 11 775; assay: In vivo activity, experimental intraperitoneal E. coli infection in mice; set-up: species or system Mäuse; conditions: Escherichia coli, ATCC11, sc, 168 h; female NMRI mice, i.p. E. coli infection, s.c. application once 1 h after infection, 7 days observation; dose at which 50 % of animals survive
Description: Eine Reihe von erfindungsgemäßen Verbindungen wurde in vivo bei experimentellen Infektionen an Mäusen untersucht. Man verwendete als pathogene Bakterien E. coli ATCC 11 775. Es wurde eine intraperitoneale Infektion mit 0,2 ml einer Bakteriensuspension (mit 5 % Mucin) gesetzt. Dies entspricht etwa 1,4 x 10^6 Keime E. coli/Maus. Weibliche Mäuse vom Stamm NMRI wurden in Gruppen von jeweils 10 Tieren aufgeteilt, zwei Gruppen blieben unbehandelt, die restlichen Gruppen wurden mit verschiedenen Dosen der jeweiligen erfindungsgemäßen Penicilline und Cephalosporine subcutan zur Bestimmung der ED50 (Dosis bei der 50 % der Tiere überleben) behandelt. Es wurde einmal eine Stunde: nach Setzen der Injektion therapiert.
Der Beobachtungszeitraum betrug in beiden Fällen 7 Tage. Die Ergebnisse dieser Teste mit repräsentativen Vertretern der erfindungsgemäßen Penicilline und Cephalosporine sind in der Tabelle 2 dargestellt.

| Compound | MIC [1] [µg/mL] | MIC [2] [µg/mL] | MIC [3] [µg/mL] | MIC [4] [µg/mL] | MIC [5] [µg/mL] | MIC [6] [µg/mL] | MIC [7] [µg/mL] | MIC [8] [µg/mL] | MIC [9] [µg/mL] | MIC [10] [µg/mL] | MIC [11] [µg/mL] | ED50 [12] [mg/kg] |
| --- | --- | --- | --- | --- | --- | --- | --- | --- | --- | --- | --- | --- |
| CCOC(=O)Oc1ccc([C@@H](NC(=O)Nc2cnc(Nc3ccc(S(N)(=O)=O)cc3)nc2O)C(=O)N[C@@H]2C(=O)N3[C@@H]2SC(C)(C)[C@@H]3C(=O)O)cc1 [A, D-α-[3-(2-p-Aminosulfonylanilino-4-hydroxy-5-pyrimidinyl)-ureido]-p-äthoxycarbonyloxy-benzylpenicillin-Natrium] | > 64 | 1 (≈ 1.34 µM) | 0.25 (≈ 0.336 µM) | 2 (≈ 2.69 µM) | 2 (≈ 2.69 µM) | 0.12 (≈ 0.161 µM) | 1 (≈ 1.34 µM) | 2 (≈ 2.69 µM) | 2 (≈ 2.69 µM) | 0.25 (≈ 0.336 µM) | 0.5 (≈ 0.671 µM) | 5.5 |
| CC1(C)S[C@@H]2[C@H](NC(=O)[C@H](NC(=O)N3CCNC3=O)c3ccccc3)C(=O)N2[C@H]1C(=O)O [Azlocillin, reference compound] | > 64 | 32 (≈ 69.3 µM) | 8 to 16 (≈ 17.3 to 34.7 µM) | 32 (≈ 69.3 µM) | 32 (≈ 69.3 µM) | 2 (≈ 4.33 µM) | 8 (≈ 17.3 µM) | 8 (≈ 17.3 µM) | 8 (≈ 17.3 µM) | 4 (≈ 8.67 µM) | 2 (≈ 4.33 µM) | > 100 |
| CC(=O)Oc1ccc([C@@H](NC(=O)Nc2cnc(Nc3ccc(S(N)(=O)=O)cc3)nc2O)C(=O)N[C@@H]2C(=O)N3[C@@H]2SC(C)(C)[C@@H]3C(=O)O)cc1 [B, D-α-[3-(2-p-Aminosulfonylanilino-4-hydroxy-5-pyrimidinyl)-ureido]-p-methylcarbonyloxy-benzylpenicillin-Natrium] | > 64 | 2 (≈ 2.8 µM) | 0.25 (≈ 0.35 µM) | 4 (≈ 5.6 µM) | 2 (≈ 2.8 µM) | 0.12 (≈ 0.168 µM) | 2 (≈ 2.8 µM) | 4 (≈ 5.6 µM) | 2 (≈ 2.8 µM) | 0.5 (≈ 0.7 µM) | 0.5 (≈ 0.7 µM) | 4.5 |
| CCOC(=O)Oc1ccc([C@@H](NC(=O)Nc2cnc(Nc3ccc(S(N)(=O)=O)cc3)nc2O)C(=O)N[C@@H]2C(=O)N3C(C(=O)O)=C(CSc4nnnn4C)CS[C@H]23)cc1 [C, Natrium-7-{D-α-[3-(2-p-aminosulfonylanilino-4-hydroxy-5-pyrimidinyl)-ureido]-p-äthoxy-carbonyloxy-phenylacetamido}-3-[(1-methyl-tetrazol-5-yl)-thiomethyl]-ceph-3-em-4-carboxylat] | 4 (≈ 4.67 µM) | 0.5 (≈ 0.584 µM) | 0.12 (≈ 0.14 µM) | 0.5 (≈ 0.584 µM) | 0.25 (≈ 0.292 µM) | 0.12 (≈ 0.14 µM) | 1 (≈ 1.17 µM) | 8 (≈ 9.34 µM) | 4 (≈ 4.67 µM) | 0.25 (≈ 0.292 µM) | 1 (≈ 1.17 µM) | 0.6 |
| CO/N=C(\C(=O)N[C@@H]1C(=O)N2C(C(=O)O)=C(COC(N)=O)CS[C@H]12)c1ccco1 [Cefuroxim, reference compound] | 4 (≈ 9.43 µM) | 32 (≈ 75.4 µM) | 8 (≈ 18.9 µM) | 2 (≈ 4.71 µM) | 4 (≈ 9.43 µM) | 0.5 (≈ 1.18 µM) | 2 (≈ 4.71 µM) | > 128 | > 128 | 8 (≈ 18.9 µM) | 1 (≈ 2.36 µM) | > 100 |
| CC(=O)Oc1ccc([C@@H](NC(=O)Nc2cnc(Nc3ccc(S(N)(=O)=O)cc3)nc2O)C(=O)N[C@@H]2C(=O)N3C(C(=O)O)=C(CSc4nnnn4C)CS[C@H]23)cc1 [D, Natrium-7-{D-α-[3-(2-p-aminosulfonyl-anilino-4-hydroxy-5-pyrimidinyl)-ureido]-p-methylcarbonyloxy-phenylacetamido}-3-[(1-methyl-tetrazol-5-yl)-thiomethyl]-ceph-3-em-4-carboxylat] | 16 (≈ 19.4 µM) | 4 (≈ 4.84 µM) | 0.5 (≈ 0.605 µM) | 2 (≈ 2.42 µM) | 1 (≈ 1.21 µM) | 0.25 (≈ 0.302 µM) | 2 (≈ 2.42 µM) | 16 (≈ 19.4 µM) | 8 (≈ 9.68 µM) | 2 (≈ 2.42 µM) | 1 (≈ 1.21 µM) | 3 |

— EP0044992A1, “Lactams, process for their preparation and pharmaceutical compositions containing them” (Dr. Karl Thomae GmbH, priority 1980, dated 1982)
